Experimental findings from ChEMBL document CHEMBL5365505, “Targeted Degradation of CDK4/6: An Innovative Approach to Overcoming Cancer Drug Resistance” (ACS Med Chem Lett, 2023) are described below.

Type in all cases: ADME, organism-based
Holding throughout (conditions): in vivo

The nature of data set [1]: AUClast in C57BL/6 mouse at 10 mg/kg, po measured for 24 hrs by LC/MS/MS analysis. The arrangement: dose 10 mg/kg, time 24 hrs, route po.
A short description of data set [2]: AUC (infinity) in C57BL/6 mouse at 10 mg/kg, po measured for 24 hrs by LC/MS/MS analysis. The arrangement: dose 10 mg/kg, time 24 hrs, route po.
Data set [3] is described as follows: Cmax in C57BL/6 mouse at 10 mg/kg, po measured for 24 hrs by LC/MS/MS analysis. Details: time 24 hrs, dose 10 mg/kg, route po.
Data set [4] can be described thus: Tmax in C57BL/6 mouse at 10 mg/kg, po measured for 24 hrs by LC/MS/MS analysis.
A short description of data set [5]: Half life in C57BL/6 mouse at 10 mg/kg, po measured for 24 hrs by LC/MS/MS analysis.
Data set [6] can be described thus: Half life in C57BL/6 mouse at 25 mg/kg, ip measured for 24 hrs by LC/MS/MS analysis.
Data set [7] is described as follows: AUClast in C57BL/6 mouse at 25 mg/kg, ip measured for 24 hrs by LC/MS/MS analysis. The arrangement: dose 25 mg/kg, time 24 hrs, route ip.
Data set [8] in a line: AUC (infinity) in C57BL/6 mouse at 25 mg/kg, ip measured for 24 hrs by LC/MS/MS analysis. The arrangement: time 24 hrs, dose 25 mg/kg, route ip.
Data set [9] in a line: Cmax in C57BL/6 mouse at 25 mg/kg, ip measured for 24 hrs by LC/MS/MS analysis. The arrangement: dose 25 mg/kg, time 24 hrs, route ip.
The nature of data set [10]: Tmax in C57BL/6 mouse at 25 mg/kg, ip measured for 24 hrs by LC/MS/MS analysis.

The structures appear in SMILES notation. “And” between values parts separate entries of the source, which are not always exact repeats. Identical values can stand only once.

As to `CC(=O)c1c(C)c2cnc(Nc3ccc(N4CCN(CC5CCN(c6ccc7c(c6)C(=O)N(C6CCC(=O)NC6=O)C7=O)CC5)CC4)cn3)nc2n(C2CCCC2)c1=O` (stereo not given), the AUC(0-t) – broadly, exposure summed from dosing to a finite time, without extrapolation to infinity – at 24 h in data set [1] is 2470 ng·h/mL. Further, the AUC(0-inf) (in general, the area under the concentration-time curve extrapolated to infinity) in data set [2] was 2730 ng·h/mL. In addition, in data set [3], the maximum concentration (Cmax) (in general, the peak of the concentration-time curve) was found to be 724 ng/mL. The Tmax (usually the time at which the peak concentration occurs) in [4] was found to be 1 h. For the same compound, the half-life (as a rule, how long it takes for the measured level to halve) in data set [5] was 2.15 h.

`CC(=O)c1c(C)c2cnc(Nc3ccc(N4CCN(CCCCC(=O)N[C@H](C(=O)N5C[C@H](O)C[C@H]5C(=O)N[C@@H](C)c5ccc(-c6scnc6C)cc5)C(C)(C)C)CC4)cn3)nc2n(C2CCCC2)c1=O` showed a half-life in data set [6] of 7 h. The AUC(0-t) at 24 h in data set [7] is 8210 ng·h/mL. Also, in data set [8], the area under the curve AUC(0-inf) is 9230 ng·h/mL. Moreover, the maximum concentration (Cmax) in [9] was 2550 ng/mL and 2.6 µM. Also, the time to peak (Tmax) in data set [10] was found to be 0.58 h.
